This note sets out measurements from DBAASP.

What all share (test): ≥ marks a high value that may be exact or a test limit, other limits are often not marked, values filed in µg/mL are converted to µM
Experiment [1] concerns Pseudomonas aeruginosa 1570.
Experiment [2] has as its system Pseudomonas aeruginosa 5167.
The test system of experiment [3] is Candida albicans ATCC 10231.
The subject of the next experiment is Candida krusei CBS 573.
In experiment [4] the test system is Candida parapsilosis CBS 604.
Experiment [5] relates to Saccharomyces cerevisiae SZMC 0644.
Experiment [6] deals with Aspergillus niger CECT 2694.
In experiment [7] the test system is Candida albicans ATCC 64550.
For experiment [8], the system named is Erwinia amylovora PMV 6076.
Experiment [9] concerns Escherichia coli DH5alpha.
Experiment [10] relates to Fusarium oxysporum f. sp. lycopersici ATCC 201829.
Experiment [11] deals with Penicillium digitatum PHI-26.
The test system of experiment [12] is Penicillium expansum EPS 26.
The test system of experiment [13] is Pseudomonas syringae EPS 94.
Experiment [14] deals with Rhizopus stolonifer CECT 2344.
Experiment [15] concerns Saccharomyces cerevisiae FY1679.
Experiment [16] concerns Xanthomonas vesicatoria 2133-2.
The subject of experiment [17] is Escherichia coli ATCC 25922.
Experiment [18] deals with Staphylococcus aureus LAC.

Molecules are shown by their SMILES. Converted amounts (≈) assume the structure as drawn. Bounds are passed on as bounds.

`CC(C)C[C@H](NC(=O)[C@H](CC(C)C)NC(=O)[C@H](CCCCN)NC(=O)[C@H](CCCCN)NC(=O)[C@H](CC(C)C)NC(=O)[C@H](CC(C)C)NC(=O)[C@H](C)NC(=O)[C@H](CC(C)C)NC(=O)[C@@H](N)Cc1ccccc1)C(N)=O` [FLALLKKLL]: the minimum inhibitory concentration (MIC) in experiment [1] is 10.7 µM (≈ 11.3 µg/mL); in [2], at least 42.8 µM.

For `CC[C@H](C)[C@H](N)C(=O)N[C@@H](C)C(=O)N[C@H](C(=O)N[C@@H](CO)C(=O)N1CCC[C@H]1C(=O)N[C@@H](Cc1ccc(O)cc1)C(=O)N[C@@H](Cc1ccc(O)cc1)C(=O)N[C@@H](C)C(=O)N[C@H]1CSSC[C@@H](C(=O)O)NC(=O)CNC(=O)[C@H](CO)NC(=O)CNC(=O)[C@H](CCCCN)NC(=O)[C@H](CCCCN)NC(=O)[C@H](Cc2cnc[nH]2)NC(=O)[C@H](CCCCN)NC(=O)[C@@H]2CSSC[C@H](NC(=O)[C@H](CC(N)=O)NC1=O)C(=O)N1CCC[C@H]1C(=O)N[C@@H](CC(N)=O)C(=O)N[C@@H](CC(N)=O)C(=O)N2)[C@@H](C)O` [IATSPYYACNCPNNCKHKKGSGC], the MIC (in experiment [3]; with Candida krusei CBS 573; in experiment [4]; in experiment [5]) was 20.3 µM (≈ 49.9 µg/mL) in each case.

On to `CC[C@H](C)[C@H](NC(=O)[C@H](CCCCN)NC(=O)[C@H](CCCCN)NC(=O)[C@H](Cc1ccccc1)NC(=O)[C@H](CC(C)C)NC(=O)[C@H](CCCCN)NC(=O)[C@@H](N)CCCCN)C(=O)N[C@@H](CC(C)C)C(=O)N[C@@H](CCCCN)C(=O)N[C@@H](Cc1ccccc1)C(=O)N[C@@H](CC(C)C)C(N)=O` [KKLFKKILKFL], for which the MIC in [6] was found to be 22.4 µM (≈ 31.4 µg/mL); in experiment [7] it was 25 µM (≈ 35.1 µg/mL); in experiment [8], 3.16 µM (≈ 4.44 µg/mL); in experiment [9], 4 µM (≈ 5.62 µg/mL); in [10] it was 0.849 µM (≈ 1.19 µg/mL); in [11], 4 µM (≈ 5.62 µg/mL). The MIC in experiment [12] is at least 35.4 µM; in experiment [13] it was 3.16 µM (≈ 4.44 µg/mL); in [14], at least 35.4 µM; in experiment [15] it was 16 µM (≈ 22.5 µg/mL); in experiment [16] it was 3.16 µM (≈ 4.44 µg/mL).

Take `CC(C)C[C@H](NC(=O)[C@H](CC(C)C)NC(=O)[C@H](CC(C)C)NC(=O)[C@@H](N)CC(C)C)C(=O)N[C@@H](CCCN=C(N)N)C(=O)N[C@@H](CCCN=C(N)N)C(=O)N[C@@H](CCCN=C(N)N)C(=O)N[C@@H](CCCN=C(N)N)C(=O)O` [LLLLRRRR]: the MIC in [17] was over 117 µM; in experiment [18], at least 117 µM.
